According to patent publication US5684017A, “Benzenesulfonylimine derivatives as inhibitors of IL-1 action” (Merrell Pharmaceuticals Inc., priority 1996, dated 1997):

Experiments:
[1] = Interleukin-1-Beta-Induced Tumor Necrosis Factor Alpha Release by Human Macrophages; format: cell-based; conditions: Macrophage; recombinant human IL-1β 20 ng/mL; compound 1 h before stimulation; supernatants after 24 h, ELISA; read-out: IC50 (IL-1β-induced TNFα release)
Experimental: (§1) The compounds of Formula I inhibit IL-1 action. One mechanism for inhibiting IL-1 action is to inhibit IL-1 production. Inhibition of IL-1 production was tested using lipopolysaccharide (LPS) stimulated macrophages. Inhibition of IL-1 induced production of cytokines was tested by measuring the inhibition of TNFα (tumor necrosis factor alpha) synthesis from IL-1 stimulated macrophages. The protocols for these test procedures are described below.
Interleukin-1-Beta-Induced Tumor Necrosis Factor Alpha Release by Human Macrophages
To determine the inhibitory concentrations for the test compounds against interleukin-1 beta (IL-1β)-induced tumor necrosis factor alpha (TNFα) release by human peripheral blood monocyte-derived macrophages. It should be understood that this is a test of the ability of the test compounds to modulate, i.e. inhibit, the activity of IL-1β by measuring the inhibition of IL-1β induced release of TNFα.
Source Human Peripheral Blood Monocyte-Derived Macrophages:
(§2) Venous blood is collected form healthy volunteers in 10 mM sodium citrate (2 mL sterile sodium citrate for 40 mL blood). Mononuclear cells are isolated with the Leucoprep tubes (Becton Dickinson, product number 2752 or 2751) spun at 1500 g for fifteen minutes. Aliquots of 3×10^6 mononuclear cells are added to 24-well tissue culture plates (Corning) in RPMI-1640. After 1 hour incubation at 37° C., non-adherent cells are gently rinsed off. The adherent cells (macrophages) are given back fresh medium RPMI-1640, 1 mL/well.
Macrophage monolayer cultures are pretreated with compounds one hour prior to IL-1β (20 ng/mL, recombinant human IL-1β) stimulation. Compounds dissolved in 95% ethanol or DMSO would require additional monolayer cultures treated with 10 or 2.5 μl 95% ethanol or DMSO, respectively. Culture supernatants are collected 24 hours later and are tested for TNF-α using a commercial ELISA kit (Cistron).
The TNF-α concentration in the culture supernatant is calculated by a standard curve generated from a series of known concentrations. Potency of compound is reported in IC50 (UM).

IL-1 production = conditions: cited from earlier work
[2] = mammal having an arthritic condition; U.S. Pat. No. 5,122,534; cited from earlier work
[3] = tested on: interleukin-1 beta (IL-1β) release (production) by human peripheral blood monocyte-derived macrophages; experiment: Endotoxin-Induced Interleukin-1 Beta Release by Human Macrophages; format: cell-based; conditions: Macrophage, endotoxin 20 ng/mL (Salmonella typhimurium Re-mutant), compound 1 h before stimulation, supernatants after 24 h, ELISA
Experimental: as §1
Endotoxin-Induced Interleukin-1 Beta Release by Human Macrophages
The objective of this test is to determine the inhibitory concentrations for the test compounds against endotoxin-induced interleukin-1 beta (IL-1β) release (production) by human peripheral blood monocyte-derived macrophages.
The source of the human peripheral blood monocyte-derived macrophages is as follows:
as §2, with “collected from” for “collected form”, “(Becton Dickenson,” for “(Becton Dickinson,”, “for 15” for “for fifteen”, “After one” for “After 1”, “off. […]” for “off. The adherent cells (macrophages) are given back fresh medium RPMI-1640, 1 mL/well.”
The IL-1β concentration in the culture supernatant is calculated by a standard curve generated from a series of known concentrations. […]

Row | Compound | IC50 [1] | block IL-1 production (IL-1 production) | serum LDL cholesterol [2] | serum triglycerides [2] | total level of serum cholesterol [2] | IC50 [3]
1 | O=C(c1ccccc1)c1cc(=NS(=O)(=O)c2ccccc2)c2ccccc2o1 [2-Benzoyl-4-benzenesulfonylimino-4H-chromene] | 1300 nM |  |  |  |  | 
2 | NC(=O)N1C(=O)/C(=C(\O)c2cccs2)c2cc(Cl)ccc21 [Tenidap] |  | known to block IL-1 production | reduces | reduces | reduces | 
3 | O=C(c1ccccc1)c1cc(=NS(=O)(=O)c2ccccc2)c2c(Cl)cc(Cl)cc2[nH]1 [5,7-Dichloro-2-benzoyl-4-[benzenesulfonylimino]-1,4-dihydroquinoline] | 3000 nM |  |  |  |  | 2000 nM
4 | CC(=O)c1cc(=NS(=O)(=O)c2ccccc2)c2c(Cl)cc(Cl)cc2[nH]1 [5,7-Dichloro-2-acetyl-4-[benzenesulfonylimino]-1,4-dihydroquinoline] | 8000 nM |  |  |  |  | 4000 nM
